Experimental data published in the METLIN SMRT retention time set (Domingo-Almenara et al. 2019).

Experiment: gradient 5% acetonitrile 3 min, to 50% in 2 min, to 85% in 15 min, held 3 min, 100 µL/min
Conditions: column: Zorbax Extend-C18 2.1 x 50 mm; eluents: water / acetonitrile, 0.1% formic acid
Summary of the method: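 A Zorbax Extend-C18 column (2.1 × 50 mm, 1.8 μm) run at 100 μL/min with water and acetonitrile, both containing 0.1% formic acid, separated mixtures of ~100 pure standards. The HPLC was coupled to a quadrupole time-of-flight mass spectrometer operated in positive and negative ionization mode, with dead and dwell volumes of 40 μL and 900 μL. Each retention time was taken from a computationally picked adduct peak that was then manually inspected.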

| Structure (SMILES) | RP-LC retention time [s] |
| --- | --- |
| Cc1ccc(NC(=O)Cn2ncc3c(c2=O)N(C2CC2)C(=O)CS3)cc1C | 732 |
| CCOC(=O)c1noc2ncnc(Nc3ccccc3CC)c12 | 948 |
| O=C(CN1C(=O)C2CCCCN2c2ccc(S(=O)(=O)N3CCCC3)cc21)NCCc1ccccc1 (stereo not drawn) | 966 |
| COC(=O)c1ccc(NC(=O)c2c(OC)cc(=O)n3c2CCCC3)cc1 | 678 |
| Cc1cccc(CN2CC(=O)N(c3cccc(Cl)c3)[C@@H]3CS(=O)(=O)C[C@@H]32)c1 | 892 |
| CC1CCN(S(=O)(=O)c2ccc3c(c2)CCCC(=O)N3CC(=O)NC2CCCC2)CC1 | 874 |
| CCc1cccc(N2C(=O)CN(S(=O)(=O)CC)CC2(C)C(=O)NCc2ccc(F)cc2)c1 (stereo not drawn) | 945 |
| Cc1ccc(-c2cc3c4nnc(SCC(=O)Nc5cccc(Cl)c5)n4ccn3n2)cc1C | 1060 |
| CCn1ccc(NC(=O)c2cc(C)ccc2C)n1 | 733 |
| Cc1ccc(-c2nnc(-c3cccc(S(=O)(=O)N4CCSCC4)c3)o2)cc1 | 1100 |
| O=C1C2N=NN(Cc3nc(-c4ccccc4Br)no3)C2C(=O)N1c1ccc(F)cc1 (stereo not drawn) | 960 |
| CCCc1nnsc1C(=O)NCC(c1cccs1)S(=O)(=O)c1ccc(C)cc1 (stereo not drawn) | 921 |
| O=C(Cn1nc2n(c1=O)CCCC2)N1CCN(c2ccccc2F)CC1 | 679 |
| COc1cccc(NC(=O)C2CCN(S(=O)(=O)c3ccc4c(c3)CCCN4C(C)=O)CC2)c1 | 836 |
| CCc1nn2c(CNS(=O)(=O)Cc3ccc(C)c(C)c3)c(-c3ccccc3)nc2s1 | 1040 |
| Cc1cc2c3ccccc3ncn2n1 | 855 |
| Cc1ccc(Cl)cc1NC(=O)CSc1ccc(N2CCCC(C(=O)NC3CC3)C2)nn1 (stereo not drawn) | 698 |
| Cc1nnc(N2CCCC(C(=O)NCCc3ccco3)C2)c2nn(-c3ccc(Cl)cc3)c(C)c12 (stereo not drawn) | 743 |
| COc1ccc(C2C(C(=O)O)c3ccccc3C(=O)N2C)cc1 (stereo not drawn) | 688 |
| CCOC(=O)C1CCc2sc(NC(=O)CCn3cnc4ccccc4c3=O)nc21 (stereo not drawn) | 690 |
| COC(=O)CC1=CC(SCC(=O)N2CCN(c3ccccc3)CC2)=Nc2ccccc2N1 | 1080 |
| O=C1/C(=C/c2cccnc2)Oc2cc(OCc3ccc([N+](=O)[O-])cc3)ccc21 | 838 |

| Structure (SMILES) | RP-LC retention time [s] |
| --- | --- |
| CCC(C)NC(=O)CC1CCN(C(=O)c2[nH]c(C)cc2C)CC1 (stereo not drawn) | 686 |
| CCn1cc(-c2ccc(C)cc2)cc1C(=O)NC1CC1 | 991 |
| O=C(NC1(c2nc(-c3cccnc3)no2)CCCCC1)c1ccc(Br)cc1 | 1010 |
| CC(C)(CO)NCc1ccc(-c2ccc(F)c(Cl)c2)o1 | 644 |
| COc1ccc(N2CCN(C(=O)c3cc(NC(C)=O)cc4nc(C)ccc34)CC2)cc1 | 603 |
| NC(=O)c1ncn2c(=O)n(CCCl)nnc12 | 645 |
| CCc1nnc(NC(=O)CN2C(=O)C3CCCCN3c3ccc(C(=O)N(C)C)cc32)s1 (stereo not drawn) | 700 |
| CCCN1CCN(c2cc(C(=O)O)c3cc(NS(=O)(=O)c4ccc(C)cc4)ccc3n2)CC1 | 638 |
| CCOc1ccccc1NC(=O)Cn1ncc2c(c1=O)N(C1CC1)C(=O)CS2 | 775 |
| COc1ccc(NC(=O)C2CCN(c3cc(N4CCSCC4)ncn3)CC2)cc1Cl | 706 |
| Cc1ccc(F)c2c(=O)c3c([nH]c12)CCN(CC(=O)Nc1cccc(F)c1)C3 | 620 |
| O=C1CCCN1Cc1noc(-c2ccccc2)n1 | 731 |
| COc1ccc(Cn2ccc3nc(C)c(C(=O)NCCc4c[nH]c5ccccc45)cc3c2=O)cc1 | 807 |
| O=S(=O)(c1ccc(-c2csc(Nc3ccc(Cl)cc3)n2)cc1)N1CCOCC1 | 1080 |
| CCCCN(CC)CCNC(=O)c1cn2c3c(ccc(Cl)c3c1=O)OCC2 | 758 |
| Cc1cc(C)c2c(N3CCSCC3)nc(C(=O)N3CCCN(C)CC3)nc2n1 | 600 |
| CC1(C(=O)NC2CCCCC2)Cn2c(ccc2-c2ccco2)C(=O)N1Cc1ccccn1 (stereo not drawn) | 766 |
| CN[C@@H]1C[C@@H](c2ccc(Cl)c(Cl)c2)c2ccccc21 | 824 |
| Cc1ccc(NC(=O)Nc2ccc(NC(=O)N3CCC(C(=O)NCC4CC4)CC3)cc2)cc1 | 740 |
| CS(=O)(=O)N1CCC(C(=O)Nc2cccc(F)c2)Oc2ccccc21 (stereo not drawn) | 894 |
| CCN(CC)CCNC(=O)Cn1c2ccccc2c2nc(=O)cc(C)n21 | 592 |
| O=C(Nc1ccccn1)C1(c2cccs2)CCOCC1 | 745 |

| Structure (SMILES) | RP-LC retention time [s] |
| --- | --- |
| Cc1cc(F)ccc1NC(=O)c1cc(C(C)C)n2nccc2n1 | 1140 |
| O=C(c1ccc2nnc(-c3ccc(Cl)cc3)n2c1)N1CCN(c2ccccn2)CC1 | 650 |
| COc1cccc(N2CCN(c3nnc(-c4nnc(C)o4)c4ccccc34)CC2)c1 | 922 |
| O=C(NCc1ccc(Cl)cc1)C1CCN(C(=O)c2cc3ccsc3[nH]2)CC1 | 797 |
| CCCC(C)C(=O)N1CCCN(C2=NS(=O)(=O)C(c3ccc(C)cc3)=C2C)CC1 (stereo not drawn) | 884 |
| COc1ccc(CCNC(=O)CSc2nnc(Cc3csc(N)n3)n2C)cc1OC | 539 |
| CCOc1ccc(NC(=O)Cn2c(=O)n(-c3cccc(C)c3)c(=O)c3c2cc(C)n3C)cc1 | 864 |
| O=C(CCc1nnn2c1CN(C(=O)NC1CCCCC1)CC2)N1CCOCC1 | 634 |
| CCN1C(=O)c2c(C(=O)Nc3ccc(C)cc3)ncn2CC1(C)C(=O)NC1CCCC1 (stereo not drawn) | 822 |
| Cc1cccc(-c2nnc(SCc3cc(=O)n4ccsc4n3)o2)c1 | 821 |
| CCOc1ccc(-c2[nH]ncc2CN2C[C@@H]3CCN(S(C)(=O)=O)C[C@]3(CF)C2)cc1 | 661 |
| CCn1cc(-c2nc(C(=O)Nc3cccc(C(=O)OC)c3)cs2)c2cccnc21 | 1060 |
| COc1cc(NC(=O)Cn2c(C)nc3c(sc4nc(-c5ccccc5)ccc43)c2=O)cc(OC)c1 | 1060 |
| CCc1nc2cc(N3CCC(C(=O)NC(C)c4ccc(OC)cc4)CC3)cnc2nc1CC (stereo not drawn) | 868 |
| CCOC(=O)C1CCN(C(=O)CCCn2c(=O)c3cccn3c3ccc(Br)cc32)CC1 | 974 |
| COCc1nc2cccnc2n1C1CCN(C(=O)NCCc2ccccc2)CC1 | 692 |
| CCC(C)NC(=O)N1C[C@@H]2CN(S(=O)(=O)c3ccc(F)cc3)C[C@H](C1)O2 (stereo partly drawn) | 731 |
| CCOc1ccccc1NC(=O)Nc1ccc2c(c1)CCN2S(=O)(=O)c1ccccc1 | 1040 |
| Cc1cc(C(=O)N(C)C)c(C)n1-c1ccc(O)cc1 | 661 |
| O=C(Cc1nnc(-c2ccc3ncccc3c2)o1)Nc1ccc(C(F)(F)F)cc1 | 827 |
| CC(=O)N1CCC(C(=O)Nc2nccs2)CC1 | 584 |
| CCN1CCN(C(=O)CN2C(=O)CSc3ccc(C(=O)N4CCCCC4)cc32)CC1 | 608 |

| Structure (SMILES) | RP-LC retention time [s] |
| --- | --- |
| CCOc1ccc(CNS(=O)(=O)c2cc(-c3c(C)noc3NC(C)=O)ccc2OC)cc1 | 785 |
| O=c1n(Cc2ccc(F)cc2Cl)nc2ccc(S(=O)(=O)N3CCOCC3)cn12 | 863 |
| Cc1oc(C2CCC2)nc1C(=O)NCc1ccccc1C(F)(F)F | 1130 |
| COc1ccc(C2CC(=O)N(c3ccc(F)c(F)c3)C(=O)C2)cc1 | 910 |
| O=C(NCc1ccccc1Cl)C1CCc2nc(N3CCOCC3)ncc2C1 (stereo not drawn) | 726 |
| O=C(CCC1CCN(c2cc(NC3CC3)ncn2)CC1)NCc1ccc(F)c(Cl)c1 | 712 |
| O=C(Cc1ccccc1)NC1CCN(c2cc(-c3ccc(Cl)cc3)[nH]n2)C1 (stereo not drawn) | 764 |
| COc1ccc(NC(=O)N(Cc2nnc3n2CCCCC3)c2cccc(OC)c2)cc1 | 700 |
| O=C(NCc1cccnc1)c1nnc(-c2ccc(S(=O)(=O)N3CCCC3)cc2)o1 | 616 |
| CCC(CO)NCC(O)COCc1ccc(Cl)cc1 (stereo not drawn) | 552 |
| CCCn1ncc(N2CCC(C(=O)NCC3CCCO3)CC2)cc1=O (stereo not drawn) | 608 |
| CCCS(=O)(=O)Nc1cccc(-c2cn3ccccc3n2)c1 | 608 |
| CSc1cccc(NC(=O)Cn2cnc3c(-c4ccncc4)nsc3c2=O)c1 | 668 |
| CC(C)n1c(=O)sc2cc(S(=O)(=O)N3CCC(C(=O)N4CCOCC4)CC3)ccc21 | 762 |
| CCOC(=O)C1CCN(C(=O)C2c3ccccc3C(=O)N3CCc4cc(OC)c(OC)cc4C23)CC1 (stereo not drawn) | 766 |
| Cc1ccc2c(=O)c(C(=O)N3CCCC3)cn(CC(=O)Nc3ccc(C)c(C)c3)c2n1 | 733 |
| COCc1nc(CCNC(=O)NC2CCCCC2)no1 | 691 |
| COc1ccc(C2CC(=O)N(c3ccc(C)c(F)c3)C(=O)C2)cc1OC | 867 |
| COc1cccc(N2CCN(S(=O)(=O)c3cc4[nH]c(=O)[nH]c4cc3C)CC2)c1 | 758 |
| CN(C)CCNC(=O)CN1C(=O)C2CCCCN2c2ccc(S(=O)(=O)N3CCCC3)cc21 (stereo not drawn) | 775 |
| O=C(CCc1csc(NC(=O)NC2CCCCC2)n1)NCCC1=CCCCC1 | 843 |
| COc1ccc(CNC(=O)CN2C(=O)CSc3cccn3-c3ccccc32)c(OC)c1 | 868 |
